Test results taken from patent US10239844B2, “Disubstituted triazole analogs” (BioVentures, LLC, priority 2014, dated 2019).

Legend:
Assay type in all cases: cell-based, human
K-562 = assay: NCI 60 panel five-dose growth inhibition, Leukemia; settings: K-562, Leukemia
RPMI-8226 = assay: NCI 60 panel five-dose growth inhibition, Leukemia; settings: RPMI-8226, Leukemia
SR = assay: NCI 60 panel five-dose growth inhibition, Leukemia
A549/ATCC = assay: NCI 60 panel five-dose growth inhibition, Non-Small Cell Lung Cancer
HOP-62 = assay: as above; settings: HOP-62, Non-Small Cell Lung Cancer
HOP-92 = assay: as above; settings: HOP-92, Non-Small Cell Lung Cancer
NCI-H23 = assay: as above
NCI-H460 = assay: as above
COLO 205 = assay: NCI 60 panel five-dose growth inhibition, Colon Cancer; settings: COLO 205, Colon Cancer
HCT-116 = assay: as above; settings: Homo sapiens; HCT-116, Colon Cancer
1-ICT-15 = assay: as above; settings: 1-ICT-15, Colon Cancer
SW-620 = assay: as above; settings: SW-620, Colon Cancer
SF-268 = assay: NCI 60 panel five-dose growth inhibition, CNS Cancer; settings: SF-268, CNS Cancer
SF-295 = assay: as above; settings: SF-295, CNS Cancer
SF-539 = assay: as above; settings: SF-539, CNS Cancer
SNB-19 = assay: as above; settings: SNB-19, CNS Cancer
SNB-75 = assay: as above; settings: Homo sapiens; SNB-75, CNS Cancer
U251 = assay: as above
M14 = assay: NCI 60 panel five-dose growth inhibition, Melanoma; settings: Homo sapiens
SK-MEL-2 = assay: NCI 60 panel five-dose growth inhibition, Melanoma; settings: SK-MEL-2, Melanoma
SK-MEL-28 = assay: NCI 60 panel five-dose growth inhibition, Melanoma; settings: SK-MEL-28, Melanoma
5K-MEL-5 = assay: NCI 60 panel five-dose growth inhibition, Melanoma; settings: 5K-MEL-5, Melanoma
UACC-62 = assay: NCI 60 panel five-dose growth inhibition, Melanoma
IGROV1 = assay: NCI 60 panel five-dose growth inhibition, Ovarian Cancer
OVCA R-3 = assay: as above; settings: OVCA R-3, Ovarian Cancer
OVCAR-4 = assay: as above; settings: OVCAR-4, Ovarian Cancer
NCI/ADR-RES = assay: as above
SK-OV-3 = assay: as above; settings: SK-OV-3, Ovarian Cancer
ACHN = assay: NCI 60 panel five-dose growth inhibition, Renal Cancer
U0-31 = assay: as above; settings: U0-31, Renal Cancer
PC-3 = assay: NCI 60 panel five-dose growth inhibition, Prostate Cancer; settings: PC-3, Prostate Cancer
DU-145 = assay: as above; settings: Homo sapiens; DU-145, Prostate Cancer
MCF7 = assay: NCI 60 panel five-dose growth inhibition, Breast Cancer
MDA-MB-231/ATCC = assay: as above
HS 5781 = assay: as above; settings: HS 5781, Breast Cancer
MDA-MB-468 = assay: as above; settings: MDA-MB-468, Breast Cancer

`COc1cc(-c2n[nH]nc2-c2cc(OC)c(OC)c(OC)c2)cc(OC)c1OC` [Example 3, 4,5-bis(3,4,5-trimethoxyphenyl)-2H-1,2,3-triazole] showed a GI50 (K-562; Homo sapiens, K562) of 25.7 nM, a TGI (K-562) greater than 100000 nM and a GI50 (RPMI-8226; Homo sapiens) of 36.5 nM. The TGI (RPMI-8226) was 87600 nM, the TGI (SR) was greater than 100000 nM and the GI50 (SR; Homo sapiens) was 21.1 nM. For the same compound, the TGI (A549/ATCC) was greater than 100000 nM, the GI50 (A549/ATCC; Homo sapiens) was 54.1 nM and the TGI (HOP-62) was greater than 100000 nM. For the same compound, the GI50 (HOP-62; Homo sapiens) was 46.7 nM, the TGI (HOP-92) was 11300 nM and the GI50 (HOP-92; Homo sapiens) was 98.9 nM. For the same compound, the TGI (NCI-H23) was greater than 100000 nM, the GI50 (NCI-H23; Homo sapiens) was 64.9 nM and the TGI (NCI-H460) was greater than 100000 nM. For the same compound, the GI50 (NCI-H460; Homo sapiens) was 38.1 nM, the TGI (COLO 205) was 1160 nM and the GI50 (COLO 205; Homo sapiens) was 228 nM. The GI50 (HCT-116) was 40.2 nM, the TGI (1-ICT-15) was greater than 100000 nM and the GI50 (1-ICT-15; Homo sapiens) was 37.3 nM. The GI50 (SW-620; Homo sapiens) was 40.6 nM, the TGI (SW-620) was greater than 100000 nM and the GI50 (SF-268; Homo sapiens) was 503 nM. For the same compound, the TGI (SF-268) was greater than 100000 nM, the GI50 (SF-295; Homo sapiens) was 14.4 nM and the TGI (SF-295) was greater than 100000 nM. For the same compound, the GI50 (SF-539; Homo sapiens) was 20 nM, the TGI (SF-539) was 50 nM and the GI50 (SNB-19; Homo sapiens) was 52.5 nM. For the same compound, the TGI (SNB-19) was greater than 100000 nM, the GI50 (SNB-75) was 15.7 nM and the TGI (U251) was 46900 nM. The GI50 (U251; Homo sapiens, U-251) was 37.1 nM, the GI50 (M14) was 21.5 nM and the GI50 (SK-MEL-2; Homo sapiens) was 26.9 nM. The TGI (SK-MEL-2) was 4240 nM, the GI50 (SK-MEL-28; Homo sapiens) was greater than 1000 nM and the TGI (SK-MEL-28) was 6330 nM. The TGI (5K-MEL-5) was 350 nM, the GI50 (5K-MEL-5; Homo sapiens) was 12.6 nM and the GI50 (UACC-62; Homo sapiens, UACC-62, UACC-62, Melanoma) was 157 nM. It also gave a TGI (UACC-62; UACC-62, Melanoma) of 4610 nM, a TGI (IGROV1) greater than 100000 nM and a GI50 (IGROV1; Homo sapiens, IGROV-1) of 64.8 nM. It also gave a GI50 (OVCA R-3; Homo sapiens, OVCAR-3) of 10.8 nM, a TGI (OVCA R-3) of 40 nM and a GI50 (OVCAR-4; Homo sapiens) of 77.4 nM. It also gave a TGI (OVCAR-4) greater than 100000 nM, a TGI (NCI/ADR-RES) of 66100 nM and a GI50 (NCI/ADR-RES; Homo sapiens) of 23.1 nM. The GI50 (SK-OV-3; Homo sapiens) was 75 nM, the TGI (SK-OV-3) was 97700 nM and the TGI (ACHN) was greater than 100000 nM. It also gave a GI50 (ACHN; Homo sapiens) of 81.3 nM, a GI50 (U0-31; Homo sapiens) of 92.3 nM and a TGI (U0-31) greater than 100000 nM. It also gave a GI50 (PC-3; Homo sapiens) of 45.8 nM, a TGI (PC-3) greater than 100000 nM and a GI50 (DU-145) of 26.6 nM. For the same compound, the TGI (MCF7) was greater than 100000 nM, the GI50 (MCF7; Homo sapiens) was 26.9 nM and the TGI (MDA-MB-231/ATCC) was greater than 100000 nM. The GI50 (MDA-MB-231/ATCC; Homo sapiens) was 94.7 nM, the TGI (HS 5781) was greater than 100000 nM and the GI50 (MDA-MB-468; Homo sapiens) was 34.6 nM. The TGI (MDA-MB-468) was 26000 nM.
